ChEMBL document CHEMBL1201862, “PubChem BioAssay data set” (2004)
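All cell lines were grown in 96-well plates and treated with compound for 48 hours. Here, GI50 denotes the concentration required for 50% inhibition of growth.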 Calls of active or inactive are those of the source. No stated cut-off is given here; in the data, active = GI50 up to about 1.1 µM and inactive = higher.

What was measured:
Assay in all cases: NCI anticancer screen, dose series, 48 h
OVCAR-8 = tested on: OVCAR-8
UACC-62 = tested on: UACC-62
HCT-116 = tested on: HCT-116
HT-29 = tested on: HT-29
HOP-62 = tested on: HOP-62
SK-OV-3 = tested on: SK-OV-3
KM12 = tested on: KM12
MCF7 = tested on: MCF7
ACHN = tested on: ACHN
MOLT-4 = tested on: MOLT-4
U-251 = tested on: U-251
NCI-H460 = tested on: NCI-H460
MDA-MB-435 = tested on: MDA-MB-435
MDA-N = tested on: MDA-N
M14 = tested on: M14
786-0 = tested on: 786-0
PC-3 = tested on: PC-3
NCI-H23 = tested on: NCI-H23
Malme-3M = tested on: Malme-3M
SNB-75 = tested on: SNB-75

Structure (SMILES) | GI50 (OVCAR-8) | GI50 (UACC-62) | GI50 (HCT-116) | GI50 (HT-29) | GI50 (HOP-62) | GI50 (SK-OV-3) | GI50 (KM12) | GI50 (MCF7) | GI50 (ACHN) | GI50 (MOLT-4) | GI50 (U-251) | GI50 (NCI-H460) | GI50 (MDA-MB-435) | GI50 (MDA-N) | GI50 (M14) | GI50 (786-0) | GI50 (PC-3) | GI50 (NCI-H23) | GI50 (Malme-3M) | GI50 (SNB-75)
COC(=O)[C@H](Cc1ccccc1)NC(=O)c1ccc(CNC(=O)/C=C/c2ccc(OCc3ccccc3)cc2)cc1 | 13.3 µM (inactive) | 4.44 µM (inactive) | 25.2 µM (inactive) | 13.5 µM (inactive) | 12.6 µM (inactive) | 24.4 µM (inactive) | 19.1 µM (inactive) | 29.4 µM (inactive) | 14.9 µM (inactive) | 6.17 µM (inactive) | 18.1 µM (inactive) | 19.5 µM (inactive) | 2.62 µM (inactive) | 2.19 µM (inactive) | 2.44 µM (inactive) | 5.11 µM (inactive) | 14.7 µM (inactive) | 14.5 µM (inactive) | 3.5 µM (inactive) | 13.8 µM (inactive)
O=c1cc(-c2ccccc2)oc2ccc(Oc3nnnn3-c3ccccc3)cc12 | 42 µM (inactive) | > 48.2 µM (inactive) | > 81.1 µM (inactive) | > 100 µM (inactive) | 29.4 µM (inactive) | > 65.3 µM (inactive) | > 100 µM (inactive) | > 45.9 µM (inactive) | > 64.4 µM (inactive) | > 100 µM (inactive) | 35 µM (inactive) | > 100 µM (inactive) | 11.9 µM (inactive) | 5.15 µM (inactive) | > 100 µM (inactive) | 25.9 µM (inactive) | > 100 µM (inactive) | > 62.7 µM (inactive) | > 100 µM (inactive) | 47.3 µM (inactive)
Cc1cccc(NC(=S)Nc2cccc(Cl)c2)n1 | > 80.9 µM (inactive) | > 75.2 µM (inactive) | > 100 µM (inactive) | > 100 µM (inactive) | 39.4 µM (inactive) | 41.9 µM (inactive) | > 100 µM (inactive) | > 100 µM (inactive) | > 100 µM (inactive) | > 100 µM (inactive) | 47.1 µM (inactive) | > 100 µM (inactive) | > 100 µM (inactive) | > 100 µM (inactive) | > 100 µM (inactive) | > 70.6 µM (inactive) | > 100 µM (inactive) | > 100 µM (inactive) | > 100 µM (inactive) | > 54 µM (inactive)
Cc1ccc(/C=C2\CCCc3ccccc3C2=O)cc1 | 22.4 µM (inactive) | 9.51 µM (inactive) | 13.7 µM (inactive) | 3.18 µM (inactive) | 9.2 µM (inactive) | 13.2 µM (inactive) | 4.11 µM (inactive) | 18.3 µM (inactive) | 31.8 µM (inactive) | 17.7 µM (inactive) | 17.4 µM (inactive) | 7.23 µM (inactive) | 2.6 µM (inactive) | 1.86 µM (inactive) | 3.21 µM (inactive) | 18 µM (inactive) | 14.7 µM (inactive) | 9.2 µM (inactive) | 8.95 µM (inactive) | 21.2 µM (inactive)
CN(C)CC1CCCC(CN2CCCCC2)C1=O (stereo not given) | 14.2 µM (inactive) | 18.3 µM (inactive) | 3.01 µM (inactive) | 5.4 µM (inactive) | > 100 µM (inactive) | > 62.7 µM (inactive) | 19.4 µM (inactive) | 1.07 µM (active) | 6.58 µM (inactive) | 0.604 µM (active) | > 54.6 µM (inactive) | > 55.8 µM (inactive) | 17.1 µM (inactive) | 14.4 µM (inactive) | 7.73 µM (inactive) | 2.74 µM (inactive) | 15.6 µM (inactive) | 17.9 µM (inactive) | 3.33 µM (inactive) | 19.4 µM (inactive)
O=C1NC(Nc2cccc(Cl)c2)=N/C1=C\c1ccc(Cl)c(Cl)c1 | 4.34 µM (inactive) | 10.1 µM (inactive) | 3.94 µM (inactive) | 6.73 µM (inactive) | 8.79 µM (inactive) | 12.4 µM (inactive) | 3.37 µM (inactive) | 3.01 µM (inactive) | 5.05 µM (inactive) | 3.37 µM (inactive) | 4.02 µM (inactive) | 2.24 µM (inactive) | 4.85 µM (inactive) | 4.52 µM (inactive) | 4.42 µM (inactive) | 3.76 µM (inactive) | 3.66 µM (inactive) | 3.44 µM (inactive) | 14.1 µM (inactive) | 13.3 µM (inactive)
C1=N\CCNCC/N=C\c2ccc(cc2)OCc2cccc(n2)COc2ccc/1cc2 | 39.5 µM (inactive) | > 100 µM (inactive) | > 100 µM (inactive) | > 100 µM (inactive) | 21.4 µM (inactive) | 36.3 µM (inactive) | > 100 µM (inactive) | > 100 µM (inactive) | 29.7 µM (inactive) | > 100 µM (inactive) | 32 µM (inactive) | > 100 µM (inactive) | > 100 µM (inactive) | > 100 µM (inactive) | 77.6 µM (inactive) | 40.2 µM (inactive) | 78.2 µM (inactive) | 66.7 µM (inactive) | 90.8 µM (inactive) | 23 µM (inactive)
